Test results reported in US7179806B2, “Δ1-pyrrolines used as pesticides” (Bayer Cropscience AG, priority 2000, dated 2007).

Tested on: larvae of the mustard beetle (Phaedon cochleariae)
Test: Phaedon larvae test (cabbage leaves dipped)
Format: in vivo
Conditions: active compound concentration 1000 ppm
Procedure: (§1) Phaedon Larvae Test To produce a suitable preparation of active compound, 1 part by weight of active compound is mixed with the stated amounts of solvent and emulsifier, and the concentrate is diluted with emulsifier-containing water to the desired concentration. Cabbage leaves (Brassica oleracea) are treated by being dipped into the preparation of active compound of the desired concentration and are populated with larvae of the mustard beetle (Phaedon cochleariae) whilst the leaves are still moist. After the desired period of time, the kill in % is determined. 100% means that all beetle larvae have been killed; 0% means that none of the beetle larvae have been killed.

| SMILES | Kill rate in % after 7 d |
| --- | --- |
| CC(C)Oc1ncc(-c2ccc(C3CCC(c4c(F)cccc4F)=N3)cc2)cn1 (centres unmarked) [drawing 270] | 100% |
| Fc1cccc(F)c1C1=NC(c2ccc(-c3ccc(C(F)(F)F)cn3)cc2)CC1 (centres unmarked) [drawing 271] | 100% |
| CC(C)Sc1ncc(-c2ccc(C3CCC(c4c(F)cccc4F)=N3)cc2)cn1 (centres unmarked) [drawing 272] | 100% |
| Fc1cccc(F)c1C1=NC(c2ccc(-c3ccc(OCC(F)(F)F)nc3)cc2)CC1 (centres unmarked) [drawing 273] | 100% |
| CCCN(CC)c1ncc(-c2ccc(C3CCC(c4c(F)cccc4F)=N3)cc2)cn1 (centres unmarked) [drawing 274] | 100% |
| CC1CC(C)CN(c2ncc(-c3ccc(C4CCC(c5c(F)cccc5F)=N4)cc3)cn2)C1 (centres unmarked) [drawing 275] | 100% |
| Fc1cccc(F)c1C1=NC(c2ccc(-c3cnc(N4CCCCC4)nc3)cc2)CC1 (centres unmarked) [drawing 276] | 100% |

Tested on: not listed separately
Test: log P determination by HPLC (reversed-phase C18, EEC Directive 79/831 Annex V.A8)
Format: physicochemical
Conditions: reversed-phase C18 HPLC column, pH 2.3, pH 2.3, 0.1% aqueous phosphoric acid/acetonitrile gradient, 43° C
Description: Mobile phases for determination in the acidic range: 0.1% aqueous phosphoric acid, acetonitrile; linear gradient from 10% acetonitrile to 90% acetonitrile.

| SMILES | chromatographic logP |
| --- | --- |
| CCNCc1ccc(-c2ccc(C3CCC(c4c(F)cccc4F)=N3)cc2)nc1 (centres unmarked) [Example 201] | 0.9 |
| Fc1cccc(F)c1C1=NC(c2ccc(-c3ccc(N4CCN(c5cccc(C(F)(F)F)c5)CC4)nc3)cc2)CC1 (centres unmarked) [Example 203] | 3 |
| Fc1cccc(F)c1C1=NC(c2ccc(-c3ccc(N4CCN(c5ncccn5)CC4)nc3)cc2)CC1 (centres unmarked) [Example 204] | 1.5 |
| Cc1cccc(C)c1N1CCN(c2ccc(-c3ccc(C4CCC(c5c(F)cccc5F)=N4)cc3)cn2)CC1 (centres unmarked) [Example 205] | 3.76 |
| CN(Cc1ccc(Cl)nc1)c1ncc(-c2ccc(C3CCC(c4c(F)cccc4F)=N3)cc2)cn1 (centres unmarked) [Example 208] | 2.89 |
| CC(=O)c1ccc(-c2ccc(C3CCC(c4c(F)cccc4F)=N3)cc2)nc1 (centres unmarked) [Example 211] | 2 |
| O=C1CCN(c2ncc(-c3ccc(C4CCC(c5c(F)cccc5F)=N4)cc3)cn2)CC1 (centres unmarked) [Example 214] | 2 |
| CON=C1CCN(c2ncc(-c3ccc(C4CCC(c5c(F)cccc5F)=N4)cc3)cn2)CC1 (centres unmarked) [Example 215] | 2.65 |
| CCCN(CC)c1ncc(Br)cn1 [III-3, N-(5-bromo-2-pyrimidinyl)-N-ethyl-N-propylamine] | 4.38 |
| Brc1cnc(N2CCOCC2)nc1 [III-5, 4-(5-bromo-2-pyrimidinyl)morpholine] | 2.15 |
| CC(C)Oc1ncc(Br)cn1 [III-7, 5-bromo-2-pyrimidinyl isopropyl ether] | 2.39 |
| CC(C)Sc1ncc(Br)cn1 [III-8, 5-bromo-2-pyrimidinyl isopropyl sulphide] | 3.34 |
| Clc1ccc(NC2CCCCC2)nn1 [III-15, N-(6-chloro-3-pyridazinyl)-N-cyclohexylamine] | 0.95 |
| FC(F)(F)COc1ccc(Cl)nn1 [III-19, 3-chloro-6-(2,2,2-trifluoroethoxy)pyridazine] | 2.05 |
| CN(c1ccc(Cl)nn1)S(=O)(=O)C(F)(F)F [III-23, N-(6-chloro-3-pyridazinyl)(trifluoro)-N-methyl-methanesulphonamide] | 2.18 |

Further lines, results first:

| chromatographic logP | SMILES |
| --- | --- |
| 3.21 | Fc1cccc(F)c1C1=NC(c2ccc(-c3cnc(OC4CCCC4)nc3)cc2)CC1 (centres unmarked) [Example 199] |
| 2.74 | Fc1cccc(F)c1C1=NC(c2ccc(-c3cnc(OCC4CC4)nc3)cc2)CC1 (centres unmarked) [Example 200] |
| 1.24 | Cc1ccc(-c2ccc(C3CCC(c4c(F)cccc4F)=N3)cc2)nc1 (centres unmarked) [Example 202] |
| 2.32 | COC(CN(C)c1ncc(-c2ccc(C3CCC(c4c(F)cccc4F)=N3)cc2)cn1)OC (centres unmarked) [Example 206] |
| 3.09 | CCOC(CN(C)c1ncc(-c2ccc(C3CCC(c4c(F)cccc4F)=N3)cc2)cn1)OCC (centres unmarked) [Example 207] |
| 3.6 | CCN(Cc1ccc(Cl)nc1)c1ncc(-c2ccc(C3CCC(c4c(F)cccc4F)=N3)cc2)cn1 (centres unmarked) [Example 209] |
| 1.58 | O/N=C/c1ccc(-c2ccc(C3CCC(c4c(F)cccc4F)=N3)cc2)nc1 (centres unmarked) [Example 210] |
| 4.11 | CN(c1ncc(-c2ccc(C3CCC(c4c(F)cccc4F)=N3)cc2)cn1)C1CCCCC1 (centres unmarked) [Example 212] |
| 1.98 | CC(C#N)c1ccc(-c2ccc(C3CCC(c4c(F)cccc4F)=N3)cc2)nc1 (centres unmarked) [Example 213] |
| 3.1 | CCON=C1CCN(c2ncc(-c3ccc(C4CCC(c5c(F)cccc5F)=N4)cc3)cn2)CC1 (centres unmarked) [Example 216] |
| 3.83 | CC(C)ON=C1CCN(c2ncc(-c3ccc(C4CCC(c5c(F)cccc5F)=N4)cc3)cn2)CC1 (centres unmarked) [Example 217] |
| 2.87 | Fc1cccc(F)c1C1=NC(c2ccc(-c3ncc(Cl)cn3)cc2)CC1 (centres unmarked) [Example 218] |
| 3.9 | Cc1nc(-c2ccc(C3CCC(c4c(F)cccc4F)=N3)cc2)nc(C)c1Cl (centres unmarked) [Example 219] |
| 2.42 | CCOC(=O)c1cncc(-c2ccc(C3CCC(c4c(F)cccc4F)=N3)cc2)c1 (centres unmarked) [Example 220] |
| 1.95 | O=Cc1ccc(-c2ccc(C3CCC(c4c(F)cccc4F)=N3)cc2)nc1 (centres unmarked) [Example 221] |
| 1.63 | Brc1ccc(N2CCOCC2)nc1 [III-1, 4-(5-bromo-2-pyridinyl)morpholine] |
| 3.48 | FC(F)(F)COc1ccc(Br)cn1 [III-2, 5-bromo-2-(2,2,2-trifluoroethoxy)pyridine] |
| 2.86 | CC(C)(C)C(=O)N1CCN(c2ncc(Br)cn2)CC1 [III-6, 1-(tert-butylcarbonyl)-4-(5-bromo-2-pyrimidinyl)piperazine] |
| 0.51 | CCN(CC)c1ccc(Cl)nn1 [III-10, N-(6-chloro-3-pyridazinyl)-N,N-diethylamine] |
| 1.82 | CCCN(CCC)c1ccc(Cl)nn1 [III-12, N-(6-chloro-3-pyridazinyl)-N,N-dipropylamine] |
| 2.36 | O=C(OCc1ccccc1)N1CCN(c2ccc(Cl)nn2)CC1 [III-13, benzyl 4-(6-chloro-3-pyridazinyl)-1-piperazinecarboxylate] |
| 1.09 | O=C1CCCN1c1ccc(Cl)nn1 [III-14, 1-(6-chloro-3-pyridazinyl)-2-pyrrolidinone] |
| 1.69 | CN(C(=O)C(C)(C)C)c1ccc(Cl)nn1 [III-17, N-(6-chloro-3-pyridazinyl)-N-methyl-N-2,2-trimethylpropanamide] |
| 1.94 | CC(C)Oc1ccc(Cl)nn1 [III-18, 3-chloro-6-isopropoxypyridazine] |
| 2.34 | CC(C)Sc1ccc(Cl)nn1 [III-20, 6-chloro-3-pyridazinyl isopropyl sulphide] |
| 1.2 | CC(C)S(=O)(=O)c1ccc(Cl)nn1 [III-21, 6-chloro-3-pyridazinyl isopropyl sulphone] |
| 1.56 | O=S(=O)(Nc1ccc(Cl)nn1)C(F)(F)F [III-22, N-(6-chloro-3-pyridazinyl)(trifluoro)methane-sulphonamide] |

Tested on: army worm (Spodoptera frugiperda) caterpillars
Test: Spodoptera frugiperda test (cabbage leaves dipped)
Format: in vivo
Conditions: 168 h, active compound concentration 500 ppm, after 7 d, read-out: Kill rate in % after 7 d
Procedure: as §1, with “Spodoptera frugiperda” for “Phaedon Larvae”, “army worm (Spodoptera frugiperda) caterpillars” for “larvae of the mustard beetle (Phaedon cochleariae)”, “caterpillars” for “beetle larvae”

| SMILES | pest or weed control at 500 ppm |
| --- | --- |
| O=C1CCCN1c1ccc(-c2ccc(C3CCC(c4c(F)cccc4F)=N3)cc2)nn1 (centres unmarked) [drawing 285] | 100% |
| CN(c1ccc(-c2ccc(C3CCC(c4c(F)cccc4F)=N3)cc2)nn1)S(=O)(=O)C(F)(F)F (centres unmarked) [drawing 286] | 100% |
| CCCCN(CCCC)c1ccc(-c2ccc(C3CCC(c4c(F)cccc4F)=N3)cc2)nn1 (centres unmarked) [drawing 287] | 100% |

Same assay, conditions: 168 h, active compound concentration 1000 ppm, after 7 d, read-out: Kill rate in % after 7 d

| SMILES | pest or weed control at 1000 ppm |
| --- | --- |
| CCCCCCN(CCCCCC)c1ccc(-c2ccc(C3CCC(c4c(F)cccc4F)=N3)cc2)nn1 (centres unmarked) | 100% |
| Fc1cccc(F)c1C1=NC(c2ccc(-c3ccc(Cl)cn3)cc2)CC1 (centres unmarked) [drawing 280] | 100% |
| CN(C)c1ncc(-c2ccc(C3CCC(c4c(F)cccc4F)=N3)cc2)cn1 (centres unmarked) [drawing 281] | 100% |
| CC(C)Oc1ccc(-c2ccc(C3CCC(c4c(F)cccc4F)=N3)cc2)nn1 (centres unmarked) [drawing 282] | 100% |
| CC(C)Sc1ccc(-c2ccc(C3CCC(c4c(F)cccc4F)=N3)cc2)nn1 (centres unmarked) [drawing 283] | 100% |
| Fc1cccc(F)c1C1=NC(c2ccc(-c3cnc(N4CCOCC4)nc3)cc2)CC1 (centres unmarked) [drawing 284] | 100% |
| CCCCCCC(=O)N(c1ccc(-c2ccc(C3CCC(c4c(F)cccc4F)=N3)cc2)nn1)C1CCCC1 (centres unmarked) [drawing 289] | 100% |
| CCCCCCN(C(=O)C(C)(C)C)c1ccc(-c2ccc(C3CCC(c4c(F)cccc4F)=N3)cc2)nn1 (centres unmarked) [drawing 290] | 100% |
| CC(C)COc1ncc(-c2ccc(C3CCC(c4c(F)cccc4F)=N3)cc2)cn1 (centres unmarked) [drawing 291] | 100% |
| CC1CC(C)CN(c2ncc(-c3ccc(C4CCC(c5c(F)cccc5F)=N4)cc3)cn2)C1 (centres unmarked) [drawing 292] | 100% |
